{
  "source": "paper PMC9025810",
  "about": "“Interaction of Antifungal Drugs with CYP3A- and OATP1B-Mediated Venetoclax Elimination” (Pharmaceutics, 2022)",
  "experiment": "Venetoclax plasma pharmacokinetics in wild-type, CYP3A(−/−) and OATP1B2(−/−) mice",
  "format": "in vivo",
  "details": "for AUC(0-t) / Cmax: mouse, plasma, po, mean (SE)",
  "experimental": "In vivo experiments were performed with female and male mice from inbred wild-type strains (FVB, DBA) or with age- and sex-matched genetically-engineered mice with a deficiency of the Cyp3a locus (8-genes; […] The studies were conducted in accordance with the NIH's Guide for the Care and Use of Laboratory Animals and as approved by the University Laboratory Animal Resources Animal Care and Use Committee at Ohio State University (2015A00000101-R2; last approved 20 September 2021) and. Mice were housed in a temperature- and light-controlled environment with free access to water and a standard diet, excluding a 3-h fast before venetoclax administration. For in vivo studies, venetoclax was prepared for oral administration by dissolving the powder in DMSO (5%) and then adding PEG300 (50%), Tween-80 (5%), and water (40%) stepwise to create a suspension with a final concentration of 2 mg/mL. […] Based on our previous experience, all experiments were prospectively designed to have group sizes of five; however, pharmacokinetic data from two CYP3A(-/-) mice were excluded due to tolerability concerns, resulting in a final group size of three (Supplementary Table S1). Pharmacokinetic studies were performed as described previously. In brief, approximately 30 μL of whole blood was collected from each mouse at six time points between 5 min and 8 h after venetoclax administration; in most cases, samples were collected at 5 min, 15 min, 30 min, 1 h, 3 h, and 8 h. The first three samples were collected from a submandibular vein using a sterile 5-mm Goldenrod Animal Lancet and a heparinized capillary tube. The fourth and fifth samples were collected from the retro-orbital venous plexus using capillary tubes after anesthetizing the mice using 2% isoflurane. The terminal sample was collected into a 1.3-mL tube containing heparin by cardiac puncture using a syringe and needle. Whole blood samples were centrifuged at 13,000× g for 5 min. The plasma supernatant was then collected, immediately placed on dry ice, and stored at -80 °C until analysis. Venetoclax was quantified using a validated UHPLC-MS/MS analytical method; this method utilizes 5-μL sample volumes and has a lower limit of quantification of 5 ng/mL. Non-compartmental analysis was performed to determine the pharmacokinetic parameters of venetoclax using Phoenix WinNonlin version 8.0 (Certara, Princeton, NJ, USA). Peak plasma concentration (Cmax) was determined by visual inspection of the data from the log concentration versus time curves. The linear trapezoidal rule was used to obtain the area under the plasma concentration-time curve from time zero to the time of the last measurable concentration (AUC0-last).",
  "note": "Where two headings read alike, the source gives them in different places.",
  "data": [
    {"smiles": "CC1(C)CCC(CN2CCN(c3ccc(C(=O)NS(=O)(=O)c4ccc(NCC5CCOCC5)c([N+](=O)[O-])c4)c(Oc4cnc5[nH]ccc5c4)c3)CC2)=C(c2ccc(Cl)cc2)C1", "note": "[Venetoclax]", "values": [
      {"measurement": "Venetoclax AUC Fold Increase", "setting": "CYP3A(−/−) + ketoconazole 50 mg/kg versus vehicle-treated CYP3A(−/−)", "result": "1.6 (versus vehicle-treated wild-type CYP3A(−/−)) fold"},
      {"measurement": "Venetoclax AUC Fold Increase", "setting": "CYP3A(−/−) + ketoconazole 50 mg/kg versus vehicle-treated CYP3A(−/−), listed as venetoclax", "result": 1.6, "unit": "fold"},
      {"measurement": "Venetoclax AUC Fold Increase", "setting": "female OATP1B2(−/−) versus wild-type DBA", "result": "2.0 (versus wild-type DBA) fold"},
      {"measurement": "Venetoclax AUC Fold Increase", "setting": "female OATP1B2(−/−) versus wild-type DBA, listed as venetoclax", "result": 2, "unit": "fold"},
      {"measurement": "AUC(0-t)", "setting": "female, CYP3A(−/−) knockout (FVB.129P2 background), 10 mg/kg, CYP3A(−/−), female, venetoclax 10 mg/kg PO, co-treatment None (control of micafungin experiment), read-out: Venetoclax AUC(0–8h)", "result": 10600, "unit": "ng·h/mL"},
      {"measurement": "AUC(0-t)", "setting": "female, DBA, 10 mg/kg, wild-type DBA, female, n=10, venetoclax 10 mg/kg PO, no co-treatment, read-out: Venetoclax AUC(0–8h)", "result": 3210, "unit": "ng·h/mL"},
      {"measurement": "Cmax", "setting": "female, DBA, 10 mg/kg, wild-type DBA, n=10, venetoclax 10 mg/kg PO, no co-treatment", "result": 523, "unit": "ng/mL"},
      {"measurement": "Cmax", "setting": "female, FVB, 10 mg/kg, Table S1: wild-type FVB, female, N=5, venetoclax 10 mg/kg PO, no co-treatment", "result": 1540, "unit": "ng/mL"},
      {"measurement": "AUC(0-t)", "setting": "female, FVB, 10 mg/kg, Table S1: wild-type FVB, female, N=5, venetoclax 10 mg/kg PO, no co-treatment, read-out: Venetoclax AUC(0-last)", "result": 7430, "unit": "ng·h/mL"},
      {"measurement": "Cmax", "setting": "female, FVB, 10 mg/kg, wild-type FVB, female, venetoclax 10 mg/kg PO 30 min after ketoconazole 50 mg/kg PO", "result": 3080, "unit": "ng/mL"},
      {"measurement": "AUC(0-t)", "setting": "female, FVB, 10 mg/kg, wild-type FVB, female, venetoclax 10 mg/kg PO 30 min after ketoconazole 50 mg/kg PO, read-out: Venetoclax AUC(0–8h)", "result": 19700, "unit": "ng·h/mL"},
      {"measurement": "AUC(0-t)", "setting": "female, FVB, 10 mg/kg, wild-type FVB, female, venetoclax 10 mg/kg PO, co-treatment PEG400 (vehicle), read-out: Venetoclax AUC(0–8h)", "result": 6530, "unit": "ng·h/mL"},
      {"measurement": "Cmax", "setting": "female, FVB, 10 mg/kg, wild-type FVB, venetoclax 10 mg/kg PO, co-treatment PEG400 (vehicle)", "result": 1030, "unit": "ng/mL"},
      {"measurement": "Cmax", "setting": "female, FVB.129P2 CYP3A(-/-), 10 mg/kg, Table S1: CYP3A(-/-), female, N=3, venetoclax 10 mg/kg PO, no co-treatment", "result": 3400, "unit": "ng/mL"},
      {"measurement": "AUC(0-t)", "setting": "female, FVB.129P2 CYP3A(-/-), 10 mg/kg, Table S1: CYP3A(-/-), female, N=3, venetoclax 10 mg/kg PO, no co-treatment, read-out: Venetoclax AUC(0-last)", "result": 13700, "unit": "ng·h/mL"},
      {"measurement": "Cmax", "setting": "female, FVB.129P2 CYP3A(−/−), 10 mg/kg, CYP3A(−/−), female, venetoclax 10 mg/kg PO 30 min after ketoconazole 50 mg/kg PO", "result": 2700, "unit": "ng/mL"},
      {"measurement": "AUC(0-t)", "setting": "female, FVB.129P2 CYP3A(−/−), 10 mg/kg, CYP3A(−/−), female, venetoclax 10 mg/kg PO 30 min after ketoconazole 50 mg/kg PO, read-out: Venetoclax AUC(0–8h)", "result": 17300, "unit": "ng·h/mL"},
      {"measurement": "AUC(0-t)", "setting": "female, FVB.129P2 CYP3A(−/−), 10 mg/kg, CYP3A(−/−), female, venetoclax 10 mg/kg PO, co-treatment PEG 400 (vehicle), read-out: Venetoclax AUC(0–8h)", "result": 10600, "unit": "ng·h/mL"},
      {"measurement": "Cmax", "setting": "female, FVB.129P2 CYP3A(−/−), 10 mg/kg, CYP3A(−/−), venetoclax 10 mg/kg PO, co-treatment None (control of micafungin experiment)", "result": 1830, "unit": "ng/mL"},
      {"measurement": "Cmax", "setting": "female, FVB.129P2 CYP3A(−/−), 10 mg/kg, CYP3A(−/−), venetoclax 10 mg/kg PO, co-treatment PEG 400 (vehicle)", "result": 1570, "unit": "ng/mL"},
      {"measurement": "Cmax", "setting": "female, FVB.129P2 CYP3A(−/−), CYP3A(−/−), female, venetoclax 10 mg/kg PO 30 min after micafungin 100 mg/kg IV", "result": 2280, "unit": "ng/mL"},
      {"measurement": "AUC(0-t)", "setting": "female, FVB.129P2 CYP3A(−/−), CYP3A(−/−), female, venetoclax 10 mg/kg PO 30 min after micafungin 100 mg/kg IV, read-out: Venetoclax AUC(0–8h)", "result": 13600, "unit": "ng·h/mL"},
      {"measurement": "AUC(0-t)", "setting": "female, OATP1B2(−/−), 10 mg/kg, OATP1B2(−/−), female, n=10, venetoclax 10 mg/kg PO, no co-treatment, read-out: Venetoclax AUC(0–8h)", "result": 6480, "unit": "ng·h/mL"},
      {"measurement": "Cmax", "setting": "female, OATP1B2(−/−), 10 mg/kg, n=10, venetoclax 10 mg/kg PO, no co-treatment", "result": 1070, "unit": "ng/mL"},
      {"measurement": "Venetoclax AUC Fold Increase", "setting": "male OATP1B2(-/-) versus male wild-type DBA (Figure S3, Table S1)", "result": 1.7, "unit": "fold"},
      {"measurement": "Cmax", "setting": "male, DBA, 10 mg/kg, Table S1: wild-type DBA, male, venetoclax 10 mg/kg PO, no co-treatment", "result": 958, "unit": "ng/mL"},
      {"measurement": "AUC(0-t)", "setting": "male, DBA, 10 mg/kg, Table S1: wild-type DBA, male, venetoclax 10 mg/kg PO, no co-treatment, read-out: Venetoclax AUC(0-last)", "result": 5270, "unit": "ng·h/mL"},
      {"measurement": "Cmax", "setting": "male, OATP1B2(-/-), 10 mg/kg, Table S1: OATP1B2(-/-), male, venetoclax 10 mg/kg PO, no co-treatment", "result": 1610, "unit": "ng/mL"},
      {"measurement": "AUC(0-t)", "setting": "male, OATP1B2(-/-), 10 mg/kg, Table S1: OATP1B2(-/-), male, venetoclax 10 mg/kg PO, no co-treatment, read-out: Venetoclax AUC(0-last)", "result": 9200, "unit": "ng·h/mL"},
      {"measurement": "Venetoclax AUC Fold Increase", "setting": "untreated CYP3A(-/-) versus untreated wild-type FVB, female (Figure S2, Table S1)", "result": 1.8, "unit": "fold"},
      {"measurement": "Venetoclax AUC Fold Increase", "setting": "vehicle-treated CYP3A(−/−) versus vehicle-treated wild-type FVB", "result": "1.6 (versus vehicle-treated wild-type FVB) fold"},
      {"measurement": "Venetoclax AUC Fold Increase", "setting": "vehicle-treated CYP3A(−/−) versus vehicle-treated wild-type FVB, listed as venetoclax", "result": 1.6, "unit": "fold"},
      {"measurement": "Venetoclax AUC Fold Increase", "setting": "wild-type FVB + ketoconazole 50 mg/kg versus vehicle-treated wild-type FVB", "result": "3.0 (versus vehicle-treated wild-type FVB) fold"},
      {"measurement": "Venetoclax AUC Fold Increase", "setting": "wild-type FVB + ketoconazole 50 mg/kg versus vehicle-treated wild-type FVB, listed as venetoclax", "result": 3, "unit": "fold"}
    ]}
  ]
}
